In experiment [1] the test system is MNT1 human melanoma cells. The experiment in a line: Melanogenesis inhibition assay (14C-thiouracil incorporation). The class given is cell-based. Conditions: MNT-1, 24 h at 37° C., 14C incorporation standardized through 3H incorporation. As for the experimental part: (§1) The inhibition of melanogenesis is measured in MNT1 human melanoma cells according to a protocol adapted from Reigner et al., Cell Mol Biol (1999) 45: 969-980. The assay is based on the concomitant incorporation of 2 radiolabelled tracers: ^14C-thiouracil is incorporated into the neosynthesized melanin and reflects melanogenesis, whereas ^3H-leucine is incorporated into the proteins and reflects cell viability and, consequently, the toxicity of the compounds tested.
(§2) The MNT1 cells are seeded into 96-well plates in the presence of the test compounds and of the radioisotopes. After incubation for 24 h at 37° C., the cells are washed and the amount of the 2 radioisotopes is measured. The test compounds are evaluated in terms of dose-response so as to calculate an IC50 for inhibition of melanogenesis on the basis of the ^14C incorporation which is standardized through the ^3H incorporation. An IC50 for cell toxicity is also calculated on the basis of the ^3H incorporation.

Experiment [2] relates to MNT1 human melanoma cells. The experiment in a line: Cell toxicity (3H-leucine incorporation) in the melanogenesis assay. Conditions: MNT-1, 24 h at 37° C. The class given is cell-based. On the procedure:
as §1, §2

The target of the next experiment is tyrosinase (Mus musculus (Mouse), UniProt P11344). The experiment in a line: Tyrosinase activity inhibition assay (B16F1 cell lysate). The class given is biochemical, murine. Conditions: lysate of B16F1 cells, L-tyrosine substrate, MBTH, reading at 520 nm after 6 hours at 37° C.; read-out: Tyrosine hydroxylase/ Dopa oxidase IC50. On the procedure: The activity of the inhibitors is measured using a lysate of B16F1 cells (murine melanoma line). In the presence of the L-tyrosine substrate, the tyrosinase present in these cells catalyses the hydroxylation of L-tyrosine to give L-DOPA and then the oxidation of the L-DOPA to give dopaquinone. In the presence of MBTH (3-methyl-2-benzothiazolinone hydrazone), the dopaquinone is trapped so as to form a pink complex which absorbs at 520 nm.
Chain of tyrosinase (P11344 19-533): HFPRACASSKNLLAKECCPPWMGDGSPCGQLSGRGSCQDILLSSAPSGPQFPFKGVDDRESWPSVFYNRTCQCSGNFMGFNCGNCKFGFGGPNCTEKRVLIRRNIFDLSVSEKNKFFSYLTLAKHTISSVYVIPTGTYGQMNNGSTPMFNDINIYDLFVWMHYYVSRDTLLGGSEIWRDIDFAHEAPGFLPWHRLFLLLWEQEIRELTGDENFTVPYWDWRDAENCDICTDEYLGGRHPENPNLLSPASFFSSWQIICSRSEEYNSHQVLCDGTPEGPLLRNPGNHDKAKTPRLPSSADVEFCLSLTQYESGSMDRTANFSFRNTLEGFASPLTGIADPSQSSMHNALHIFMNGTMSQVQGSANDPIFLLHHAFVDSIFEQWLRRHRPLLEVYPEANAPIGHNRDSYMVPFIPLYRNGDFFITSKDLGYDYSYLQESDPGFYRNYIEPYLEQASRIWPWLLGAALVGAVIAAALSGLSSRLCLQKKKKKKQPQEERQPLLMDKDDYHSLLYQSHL
The B16F1 cells are cultured in DMEM medium+10% foetal calf serum+10^−9 M α-MSH for 4 days at 37° C. under 7% CO2. They are treated with trypsin, washed in PBS, counted and pelleted. The pellet is taken up at 10^7 cells/ml in lysis buffer (10 mM sodium phosphate, pH 6.8-1% Igepal) and the suspension is treated with ultrasound for 10 seconds. After centrifugation for 30 minutes at 4000 rpm, the supernatant obtained constitutes the cell lysate used as tyrosinase source in the enzymatic assay.
The assays are carried out in duplicate in 384-well plates in a total volume of 50 μl. […]
The plate is incubated at 37° C. and a spectrophotometric reading is carried out at 520 nm after 6 hours of incubation. In order to avoid any possible absorption of the products, the system uses corrected absorbance (absorbance at time 6 h—absorbance at time zero). […]

As to `CCCCc1ccc(O)cc1O` [4-Butylresorcinol (Rucinol), 4-Butylresorcinol, reference compound], the results for the IC50 in experiment [1] and in experiment [2] were 15000 nM and 55000 nM, respectively.
As to `O=C([C@@H](O)c1ccccc1)N1CCC(c2ccc(O)cc2O)CC1` [Compound 48, (S)-1-[4-(2,4-dihydroxyphenyl)piperidin-1-yl]-2-hydroxy-2-phenylethanone], the IC50 at tyrosinase was 200 nM; in experiment [1], 700 nM; in experiment [2] it was over 999000 nM.
Taken in the same sequence, the figures for `C[C@H](NC(=O)N1CCC(c2ccc(O)cc2O)CC1)c1ccccc1` [Compound 24, 4-(2,4-dihydroxyphenyl)piperidine-1-carboxylic acid ((S)-1-phenylethyl)amide] were 150 nM, 300 nM and over 999000 nM.

The values above are taken from patent publication US8993596B2, “4-(azacycloalkyl)benzene-1,3-diol compounds as tyrosinase inhibitors, process for the preparation thereof and use thereof in human medicine and in cosmetics” (Galderma Research & Development, priority 2008, dated 2015).
